# Measurements: patent publication US20060116451A1, “Stabilization of antioxidants” (priority 2004, published 2006)
# Test: Residual antioxidant activity (ABTS^+) upon exposure to UV-irradiated TiO2
# Type: physicochemical
# Details: FIG. 6
# Protocol: Exposure of enzymes to UV-irradiated TiO2: Enzyme (0.8 mg protein/mL, total 10 mL in 25 mM phosphate buffer, pH 7.5) was placed in an open scintillation vial. TiO2 fine powder (0.25 mg/mL) was added to the protein solution and the suspension was stirred gently at room temperature (25° C.) with a magnetic stir bar placed inside the vial. The enzyme-TiO2 suspension was placed under a […] UV lamp (model No. B-100AP, UVP, San Gabriel, Calif.). The distance between the UV lamp and the vial was 18 cm. At this distance, the UV irradiance at 365 nm (λmax) was 8 mW/cm^2 (determined using a […]® UV meter (Model No. J-221). It was also verified that there was no thermal denaturation of the enzyme during irradiation and the temperature of the enzyme-TiO2 suspension remained constant (25±2° C.) throughout. Exposure of antioxidants to UV-irradiated TiO2: Trolox (0.01 mg/mL) was dissolved in 10 mL phosphate buffer (25 mM, pH 7.5). TiO2 (0.25 mg/mL) was added to the Trolox solution. The suspension was stirred and irradiated with UV as described above. At 30 min intervals, 1 mL aliquots were removed from the irradiating suspension and filtered through a 0.2 μm filter. […] Determination of residual antioxidant activity: Antioxidant activities of modified enzymes and the modifiers were measured according to the following modification of the assay reported by Re et al. Re, […].; Yang, M.; Rice-Evans, C. […]
smiles,measurement,value
"Cc1c(C)c2c(c(C)c1O)CCC(C)(C(=O)O)O2 (stereo not shown) [Trolox, 6-hydroxy-2,5,7,8-tetramethylchroman-2-carboxylic acid]",loss of free radical absorbing activity during the first hour of photooxidation (TiO2-UV),80%
